Measured values published in patent US20260159512A1, “BCAT2 INHIBITORS” (AGIOS PHARMACEUTICALS, INC., priority 2021, published 2026).
pIC50: −log10 of the molar value. Where “and” joins values, the source holds several entries; their conditions need not be identical. Identical values can stand only once.

Assays:
Details in all cases: average where tested multiple times
[1] = biological target: T1, BCAT2 (Homo sapiens, UniProt O15382); test: BCAT2 in vitro enzyme inhibition assay (resazurin/diaphorase-coupled fluorescence); assay type: biochemical
T1 sequence (O15382 28-392): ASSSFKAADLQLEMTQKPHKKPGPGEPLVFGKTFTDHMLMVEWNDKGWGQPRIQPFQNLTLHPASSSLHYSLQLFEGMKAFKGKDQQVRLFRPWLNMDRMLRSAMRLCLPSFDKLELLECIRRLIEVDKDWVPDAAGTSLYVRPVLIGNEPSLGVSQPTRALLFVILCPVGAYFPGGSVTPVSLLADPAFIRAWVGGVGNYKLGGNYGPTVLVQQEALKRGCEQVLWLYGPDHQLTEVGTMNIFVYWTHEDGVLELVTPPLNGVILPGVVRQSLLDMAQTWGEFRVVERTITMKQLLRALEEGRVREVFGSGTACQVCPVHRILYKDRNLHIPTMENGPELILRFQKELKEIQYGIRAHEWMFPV
In short: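 Coupled fluorescence readout: glutamate formed from L-leucine/α-ketoglutarate transamination drives GDH/NAD/diaphorase reduction of resazurin (Ex 540/Em 590). Human BCAT2 was first exposed 1 h at room temperature to compound, top final 100 μM in 3-fold, 10-point series; substrate reaction ran 1 h before SDS quench, in technical duplicate with DMSO max and enzyme-free min controls.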

[2] = biological target: T2, hBCAT1 (Homo sapiens, UniProt P54687); test: BCAT1 in vitro enzyme inhibition assay (resazurin/diaphorase-coupled fluorescence); assay type: biochemical
T2 sequence (P54687 1-386): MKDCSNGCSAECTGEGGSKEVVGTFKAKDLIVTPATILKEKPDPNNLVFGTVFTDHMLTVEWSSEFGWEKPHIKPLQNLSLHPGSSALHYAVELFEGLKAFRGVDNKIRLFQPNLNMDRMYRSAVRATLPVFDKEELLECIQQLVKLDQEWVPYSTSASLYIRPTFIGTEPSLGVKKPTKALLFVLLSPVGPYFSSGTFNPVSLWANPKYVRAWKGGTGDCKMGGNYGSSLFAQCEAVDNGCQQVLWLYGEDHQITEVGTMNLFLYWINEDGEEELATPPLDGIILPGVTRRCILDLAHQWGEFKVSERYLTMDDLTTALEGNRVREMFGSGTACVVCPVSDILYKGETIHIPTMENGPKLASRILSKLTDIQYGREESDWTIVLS
In short: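 Ten-point, 3-fold compound series (top final 100 μM, delivered 1:50 from 50× DMSO stocks) tested against hBCAT1. Inhibition detected via diaphorase-coupled resazurin fluorescence, duplicate wells, with values from repeated runs averaged.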

[3] = biological target: T1, BCAT2; test: BCAT2 in vitro cell inhibition using engineered A549 cells (KMV cell assay, 13C6-KMV by LC-MS/MS); assay type: cell-based; set-up: The result was an engineered A549 cell line that expressed endogenous BCAT2; endogenous in cells; host or cells: A549 cells with MUT and BCAT1 knocked out by CRISPR/CAS9; key to BCAT2 Cell Inhibition: A: less than or equal to 0.100 μM; B: greater than 0.100 and less than or equal to 0.500 μM; C: greater than 0.500 and less than or equal to 1.000 μM; d: greater than 1.000 μM; E: no fit

| SMILES | pIC50 [1] | pIC50 [2] | BCAT2 Cell Inhibition [3] | pIC50 [3] |
| --- | --- | --- | --- | --- |
| Cc1noc(C)c1-c1nc2cnc(-n3ccnn3)cc2n1[C@@H]1CCC[C@H](NC(=O)c2ncc(C(F)F)s2)C1 [Example 48, 5-(difluoromethyl)-N-((1S,3R)-3-(2-(3,5-dimethylisoxazol-4-yl)-6-(1H-1,2,3-triazol-1-yl)-1H-imidazo[4,5-c]pyridin-1-yl)cyclohexyl)thiazole-2-carboxamide] | < 6.00 | < 5.30 | E | – |
| O=C(N[C@H]1CCC[C@@H](n2c(-c3ncccc3F)nc3cnc(N4CCCC4=O)cc32)C1)c1ncc(C(F)F)s1 [Example 49, 5-(difluoromethyl)-N-((1S,3R)-3-(2-(3-fluoropyridin-2-yl)-6-(2-oxopyrrolidin-1-yl)-1H-imidazo[4,5-c]pyridin-1-yl)cyclohexyl)thiazole-2-carboxamide] | 6.30 to 7.00 | < 5.30 | E | – |
| O=C(N[C@H]1CCC[C@@H](n2c(-c3ccccn3)nc3cnc(-c4nn[nH]n4)cc32)C1)c1ncc(C(F)F)s1 [Example 50, 5-(difluoromethyl)-N-((1S,3R)-3-(2-(pyridin-2-yl)-6-(2H-tetrazol-5-yl)-1H-imidazo[4,5-c]pyridin-1-yl)cyclohexyl)thiazole-2-carboxamide] | ≥ 7.00 | > 6.30 | E | – |
| Cc1nc2cnc(-n3ccnn3)cc2n1[C@@H]1CCC[C@H](NC(=O)c2ccc(Br)s2)C1 [Example 52, 5-bromo-N-((1S,3R)-3-(2-methyl-6-(1H-1,2,3-triazol-1-yl)-1H-imidazo[4,5-c]pyridin-1-yl)cyclohexyl)thiophene-2-carboxamide] | < 6.00 | < 5.30 | E | – |
| O=C(N[C@H]1CCC[C@@H](n2c(-c3ccccn3)nc3cnc(-c4nc[nH]n4)cc32)C1)c1ncc(C(F)F)s1 [Example 53, 5-(difluoromethyl)-N-((1S,3R)-3-(2-(pyridin-2-yl)-6-(1H-1,2,4-triazol-3-yl)-1H-imidazo[4,5-c]pyridin-1-yl)cyclohexyl)thiazole-2-carboxamide] | ≥ 7.00 | > 6.30 | – | ≥ 7.00 |
| O=C(N[C@H]1CCC[C@@H](n2c(-c3ncccc3F)nc3cnc(-c4cc[nH]n4)cc32)C1)c1ncc(C(F)F)s1 [Example 55, 5-(difluoromethyl)-N-((1S,3R)-3-(2-(3-fluoropyridin-2-yl)-6-(1H-pyrazol-3-yl)-1H-imidazo[4,5-c]pyridin-1-yl)cyclohexyl)thiazole-2-carboxamide] | ≥ 7.00 | > 6.30 | – | ≥ 7.00 |
| O=C(N[C@H]1CCC[C@@H](n2c(-n3cccn3)nc3cnc(-n4nccn4)cc32)C1)c1ncc(C(F)F)s1 [Example 56, N-((1S,3R)-3-(2-(1H-pyrazol-1-yl)-6-(2H-1,2,3-triazol-2-yl)-1H-imidazo[4,5-c]pyridin-1-yl)cyclohexyl)-5-(difluoromethyl)thiazole-2-carboxamide] | ≥ 7.00 | 5.30 to 6.00 | – | 6.30 to 7.00 |
| O=C(N[C@H]1CCC[C@@H](n2c(-c3ncccc3F)nc3cnc(-n4nccn4)nc32)C1)c1ncc(C(F)F)s1 [Example 58, 5-(difluoromethyl)-N-((1S,3R)-3-(8-(3-fluoropyridin-2-yl)-2-(2H-1,2,3-triazol-2-yl)-9H-purin-9-yl)cyclohexyl)thiazole-2-carboxamide] | ≥ 7.00 | 5.30 to 6.00 | – | 6.30 to 7.00 |
| O=C(N[C@H]1CCC[C@@H](n2c(-c3ncccc3F)nc3cnc(-n4ccnn4)nc32)C1)c1ncc(C(F)F)s1 [Example 59, 5-(difluoromethyl)-N-((1S,3R)-3-(8-(3-fluoropyridin-2-yl)-2-(1H-1,2,3-triazol-1-yl)-9H-purin-9-yl)cyclohexyl)thiazole-2-carboxamide] | 6.30 to 7.00 | < 5.30 | – | < 6.00 |
| Cc1cccnc1-c1nc2cnc(-n3nccn3)cc2n1[C@@H]1CCC[C@H](NC(=O)c2ncc(C(F)F)s2)C1 [Example 60, 5-(difluoromethyl)-N-((1S,3R)-3-(2-(3-methylpyridin-2-yl)-6-(2H-1,2,3-triazol-2-yl)-1H-imidazo[4,5-c]pyridin-1-yl)cyclohexyl)thiazole-2-carboxamide] | ≥ 7.00 | 6.00 to 6.30 | – | 6.30 to 7.00 |
| C#Cc1cnc(C(=O)N[C@H]2CCC[C@@H](n3c(-c4ncccc4C)nc4cnc(-n5nccn5)cc43)C2)s1 [Example 61, 5-ethynyl-N-((1S,3R)-3-(2-(3-methylpyridin-2-yl)-6-(2H-1,2,3-triazol-2-yl)-1H-imidazo[4,5-c]pyridin-1-yl)cyclohexyl)thiazole-2-carboxamide] | ≥ 7.00 | > 6.30 | – | ≥ 7.00 |
| O=C(N[C@H]1CCC[C@@H](n2c(-c3ccccc3F)nc3cnc(-n4nccn4)nc32)C1)c1ncc(C(F)F)s1 [Example 62, 5-(difluoromethyl)-N-((1S,3R)-3-(8-(2-fluorophenyl)-2-(2H-1,2,3-triazol-2-yl)-9H-purin-9-yl)cyclohexyl)thiazole-2-carboxamide] | ≥ 7.00 | 6.00 to 6.30 | – | ≥ 7.00 |
| O=C(N[C@H]1CCC[C@@H](n2c(Oc3ccccc3)nc3cnc(-n4nccn4)cc32)C1)c1ccc(Br)s1 [Example 63, 5-bromo-N-((1S,3R)-3-(2-phenoxy-6-(2H-1,2,3-triazol-2-yl)-1H-imidazo[4,5-c]pyridin-1-yl)cyclohexyl)thiophene-2-carboxamide] | ≥ 7.00 | < 5.30 | – | 6.30 to 7.00 |
| COC(=O)c1cnn(-c2cc3c(cn2)nc(-c2ccccn2)n3[C@@H]2CCC[C@H](NC(=O)c3ncc(C(F)F)s3)C2)n1 [Example 64, methyl 2-(1-((1R,3S)-3-(5-(difluoromethyl)thiazole-2-carboxamido)cyclohexyl)-2-(pyridin-2-yl)-1H-imidazo[4,5-c]pyridin-6-yl)-2H-1,2,3-triazole-4-carboxylate] | ≥ 7.00 | 5.30 to 6.00 | – | 6.30 to 7.00 and 6.00 to 6.30 |
| O=C(N[C@H]1CCC[C@@H](n2c(-c3ncccc3F)nc3cnc(-n4nccn4)cc32)C1)c1ncc(C(F)(F)F)s1 [Example 65, N-((1S,3R)-3-(2-(3-fluoropyridin-2-yl)-6-(2H-1,2,3-triazol-2-yl)-1H-imidazo[4,5-c]pyridin-1-yl)cyclohexyl)-5-(trifluoromethyl)thiazole-2-carboxamide] | ≥ 7.00 | 6.00 to 6.30 | – | ≥ 7.00 |
| N#Cc1cnc(C(=O)N[C@H]2CCC[C@@H](n3c(-c4ncccc4F)nc4cnc(-n5nccn5)cc43)C2)s1 [Example 66, 5-cyano-N-((1S,3R)-3-(2-(3-fluoropyridin-2-yl)-6-(2H-1,2,3-triazol-2-yl)-1H-imidazo[4,5-c]pyridin-1-yl)cyclohexyl)thiazole-2-carboxamide] | ≥ 7.00 | > 6.30 | – | ≥ 7.00 |
| O=C(N[C@H]1CCC[C@@H](n2c(-n3nccn3)nc3cnc(-n4nccn4)cc32)C1)c1ncc(C(F)F)s1 [Example 67, N-((1S,3R)-3-(2,6-di(2H-1,2,3-triazol-2-yl)-1H-imidazo[4,5-c]pyridin-1-yl)cyclohexyl)-5-(difluoromethyl)thiazole-2-carboxamide] | 6.30 to 7.00 | < 5.30 | – | < 6.00 |
